Strand notation (5' to 3'): a small letter for the sugar, then the base; units joined by * are phosphorothioate-linked, units joined directly phosphodiester-linked; [ ] holds rarer units or linkages, { } end groups; capitals alone tell only the bases. e = 2'-O-(2-methoxyethyl) (MOE); k = constrained ethyl (cEt); [5mC] = 5-methylcytosine; d = 2'-deoxy (DNA); m = 2'-O-methyl
Tested on: Yap1 mRNA
Test: Antisense inhibition of human Yap1 in SNU-449 cells by modified oligonucleotides, single dose (Example 5, RTS36584)
Format: cell-based
Settings: Table 39; SNU-449 cells, 10,000 cells per well, free uptake, 2,000 nM oligonucleotide, approx. 48 hours; RTS36584; normalized to RIBOGREEN; Yap1 mRNA relative to untreated control
In short: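 Values are % of untreated control: Yap1 mRNA by quantitative RT-PCR (RTS36584), normalized to RIBOGREEN total RNA. Oligonucleotides were dosed at 2,000 nM, free uptake, in SNU-449 cells, with roughly 48 h exposure before RNA isolation.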

Row | Substance | YAP1 (% UTC)
1 | 1198433 (kG*dT*dA*dA*dT*dA*dT*dT*dG*d[5mC]*dA*kA*eT*k[5mC]*eT*kG) [Compound 1198433] | 36
2 | 1198452 (kA*d[5mC]*dT*dA*dA*dG*dT*dA*dA*dG*dG*kT*eT*kT*e[5mC]*k[5mC]; antisense) [Compound 1198452] | 38
3 | 1198417 (k[5mC]*dA*dG*dA*dT*dT*dT*dA*dG*dG*dA*kT*eG*k[5mC]*eA*kT; antisense) [Compound 1198417] | 40
4 | 1198395 (k[5mC]*dT*dT*dT*dT*dA*d[5mC]*dA*dT*dT*dA*kG*eG*kA*eA*k[5mC]; antisense) [Compound 1198395] | 35

Same assay, conditions: Table 40 (separate experiment); SNU-449 cells, 10,000 cells per well, free uptake, 2,000 nM oligonucleotide, approx. 48 hours; RTS36584; normalized to RIBOGREEN; Yap1 mRNA relative to untreated control

Row | Substance | YAP1 (% UTC)
5 | 1198718 (kG*eA*kA*dA*dT*dT*dG*dT*d[5mC]*dT*d[5mC]*dA*eT*eG*k[5mC]*k[5mC]; antisense) [Compound 1198718] | 9
6 | 1198728 (kT*eA*kT*dT*dA*dG*dA*dG*dT*dA*dT*dG*eT*eG*kG*k[5mC]; antisense) [Compound 1198728] | 17
7 | 1198727 (kA*eT*kT*dA*dG*dA*dG*dT*dA*dT*dG*dT*eG*eG*k[5mC]*kA; antisense) [Compound 1198727] | 19

Same assay, conditions: Table 41; SNU-449 cells, 10,000 cells per well, free uptake, 2,000 nM modified oligonucleotide, approximately 48 hours; RTS36584; normalized to RIBOGREEN; Yap1 mRNA relative to untreated control cells

Row | Substance | YAP1 (% UTC)
8 | 1198640 (kT*kT*dA*dG*dA*dG*dT*dA*dT*dG*dT*dG*kG*e[5mC]*kA*eA; antisense) [Compound 1198640] | 26
9 | 1198672 (antisense kA*kT*dT*dT*dA*dG*dG*dA*dT*dG*d[5mC]*dA*kT*eG*kG*eT) [Compound 1198672] | 41
10 | 1198664 (antisense kG*k[5mC]*dT*dT*dT*dG*dG*dA*dA*dG*dA*dT*k[5mC]*eT*kG*eA) [Compound 1198664] | 18

Same assay, conditions: Table 42 (separate experiment); SNU-449 cells, 10,000 cells per well, free uptake, 2,000 nM modified oligonucleotide, approximately 48 hours; RTS36584; normalized to RIBOGREEN; Yap1 mRNA relative to untreated control cells

Row | Substance | YAP1 (% UTC)
11 | 1198696 (antisense kT*kG*dT*dA*dT*dG*dT*d[5mC]*dA*dG*dA*dA*kG*eA*kG*eT) [Compound 1198696] | 12
12 | 1198201 (kA*kA*dA*dT*dT*dG*dT*d[5mC]*dT*d[5mC]*dA*eT*eG*e[5mC]*k[5mC]*kT; antisense) [Compound 1198201] | 34

Same assay, conditions: Table 43 experiment; SNU-449 cells, 10,000 cells per well, free uptake, 2,000 nM, approximately 48 hours; RTS36584; Yap1 mRNA normalized to RIBOGREEN, relative to untreated control cells

Row | Substance | YAP1 (% UTC)
13 | 119825 4 (kA*kA*d[5mC]*dT*d[5mC]*dT*dT*dA*dT*dA*dT*eG*eG*eT*kT*kT; antisense) | 95
14 | 1198458 (kA*kA*dT*dT*dG*dT*d[5mC]*dT*d[5mC]*dA*dT*eG*k[5mC]*e[5mC]*kT*eT) [Compound 1198458] | 30
15 | 1198245 (k[5mC]*kA*dG*dA*dT*dT*dT*dA*dG*dG*dA*eT*eG*e[5mC]*kA*kT; antisense) [Compound 1198245] | 46

Same assay, conditions: Table 44 experiment; SNU-449 cells, 10,000 cells per well, free uptake, 2,000 nM, approximately 48 hours; RTS36584; Yap1 mRNA normalized to RIBOGREEN, relative to untreated control cells

Row | Substance | YAP1 (% UTC)
16 | 1198490 (antisense kT*kT*dT*dG*dG*dA*dA*dG*dA*dT*d[5mC]*eT*kG*eA*kA*eA) [Compound 1198490] | 53
17 | 1198531 (k[5mC]*kT*dT*dT*dA*dA*dA*dG*dT*dG*dT*eA*kT*eG*kT*e[5mC]; antisense) [Compound 1198531] | 21
18 | 1198508 (k[5mC]*kT*dT*dA*dT*dA*dT*dG*dG*dT*dT*eT*kT*eG*kT*eG; antisense) [Compound 1198508] | 22

Same assay, conditions: Table 45; Yap1 mRNA as percent of untreated control, SNU-449 cells, single dose

Row | Substance | YAP1 (% UTC)
19 | 1198962 (kT*kA*dA*dA*dG*dT*dG*dT*dA*dT*dG*kT*d[5mC]*kA*dG*kA; antisense) [Compound 1198962] | 52
20 | 1198947 (k[5mC]*kA*dA*d[5mC]*dT*d[5mC]*dT*dT*dA*dT*dA*kT*dG*kG*dT*kT; antisense) [Compound 1198947] | 88
21 | 1198908 (kT*kA*dT*dA*dA*d[5mC]*dT*dG*dG*dG*d[5mC]*kA*dA*kA*dT*kT; antisense) [Compound 1198908] | 124
22 | 1198960 (kA*kA*dG*dT*dG*dT*dA*dT*dG*dT*d[5mC]*kA*dG*kA*dA*kG; antisense) [Compound 1198960] | 6
23 | 1198933 (kT*kT*dT*dA*dG*dG*dA*dT*dG*d[5mC]*dA*kT*dG*kG*dT*kT; antisense) [Compound 1198933] | 69
24 | 1198944 (k[5mC]*kT*d[5mC]*dT*dT*dA*dT*dA*dT*dG*dG*kT*dT*kT*dT*kG; antisense) [Compound 1198944] | 34

Same assay, conditions: Table 46; Yap1 mRNA as percent of untreated control, SNU-449 cells, single dose

Row | Substance | YAP1 (% UT)
25 | 1198830 (kA*k[5mC]*dT*dT*dT*dT*dA*d[5mC]*dA*dT*dT*kA*eG*kG*eA*kA) [Compound 1198830] | 37
26 | 1198816 (antisense kT*kT*dA*dG*dA*dG*dT*dA*dT*dG*dT*kG*eG*k[5mC]*eA*kA) [Compound 1198816] | 27

Same assay, conditions: Table 48; Yap1 mRNA level relative to untreated control; modified oligonucleotides targeting SEQ ID NO.: 1 and 2

Row | Substance | YAP1 (% UT)
27 | 1198291 (kA*kT*kG*dG*dA*dA*dA*dT*dT*dG*dT*d[5mC]*kT*e[5mC]*kA*eT; antisense) [Compound 1198291] | 58
28 | 1198328 (kA*kT*kT*dT*dA*dG*dG*dA*dT*dG*d[5mC]*dA*kT*eG*kG*eT; antisense) [Compound 1198328] | 42
29 | 1097224 (antisense k[5mC]*kT*k[5mC]*dT*dT*dA*dT*dA*dT*dG*dG*dT*dT*kT*kT*kG) [Compound 1097224] | 22

Same assay, conditions: Table 49; Yap1 mRNA level relative to untreated control; modified oligonucleotides targeting SEQ ID NO.: 1 and 2

Row | Substance | YAP1 (% UT)
30 | 1198305 (kG*kA*kG*dG*dT*dA*dT*dA*dA*d[5mC]*dT*dG*kG*eG*k[5mC]*eA; antisense) [Compound 1198305] | 78
31 | 1198559 (antisense kT*k[5mC]*kT*dA*dT*dA*dT*dT*dA*dG*dA*dG*kT*kA*kT*eG) [Compound 1198559] | 55

Same assay, conditions: Table 50; Yap1 mRNA remaining as percent of untreated control (UT), SNU-449 cells, single dose

Row | Substance | YAP1 (% UT)
32 | 1198624 (kA*k[5mC]*kT*dA*dA*dG*dT*dA*dA*dG*dG*dT*kT*kT*k[5mC]*e[5mC]; antisense) [Compound 1198624] | 20
33 | 1197247 (antisense kA*kA*kG*d[5mC]*mA*d[5mC]*dT*dT*dT*dT*dA*d[5mC]*dA*kT*kT*kA) [Compound 1197247] | 47
34 | 1197293 (k[5mC]*kA*k[5mC]*dT*mU*dT*dT*dA*d[5mC]*dA*dT*dT*dA*kG*kG*kA; antisense) [Compound 1197293] | 94
35 | 1095454 (antisense k[5mC]*kT*kG*dA*dG*dG*dT*dA*dT*dA*dA*d[5mC]*kT*kG*kG*eG) [Compound 1095454] | 47

Same assay, conditions: Table 51; Yap1 mRNA remaining as percent of untreated control (UT), SNU-449 cells, single dose

Row | Substance | YAP1 (% UT)
36 | 1197275 (kA*kA*kG*dT*mA*dA*dG*dG*dT*dT*dT*d[5mC]*d[5mC]*k[5mC]*kA*kG) [Compound 1197275] | 30
37 | 1200784 (kT*kG*kT*d[5mC]*dT*mC*dA*dT*dG*d[5mC]*d[5mC]*dT*dT*kA*kT*kA; antisense) [Compound 1200784] | 19
38 | 1197310 (kT*kA*kT*dG*mU*dA*dA*dT*dA*dT*dT*dG*d[5mC]*kA*kA*kT; antisense) [Compound 1197310] | 109
39 | 1197277 (kA*k[5mC]*kT*dA*mA*dG*dT*dA*dA*dG*dG*dT*dT*kT*k[5mC]*k[5mC]) [Compound 1197277] | 23

Same assay, conditions: Table 52; Yap1 mRNA, modified oligonucleotides targeting SEQ ID NO: 1 and 2

Row | Substance | YAP1 (% UT)
40 | 1200806 (kT*kG*kA*dG*dG*mU*dA*dT*dA*dA*d[5mC]*dT*dG*kG*kG*k[5mC]; antisense) [Compound 1200806] | 24
41 | 1200811 (kT*kT*kA*d[5mC]*dA*mU*dT*dA*dG*dG*dA*dA*d[5mC]*kA*kA*kG; antisense) [Compound 1200811] | 62
42 | 1200850 (kT*kA*kA*dT*dA*mU*dT*dG*d[5mC]*dA*dA*dT*d[5mC]*kT*kG*kT; antisense) [Compound 1200850] | 83
43 | 1200821 (kT*kT*kG*dG*dA*mA*dG*dA*dT*d[5mC]*dT*dG*dA*kA*kA*k[5mC]; antisense) [Compound 1200821] | 59
44 | 1200859 (kA*kA*kA*dG*dT*mG*dT*dA*dT*dG*dT*d[5mC]*dA*kG*kA*kA; antisense) [Compound 1200859] | 28
45 | 1200807 (k[5mC]*kT*kG*dA*dG*mG*dT*dA*dT*dA*dA*d[5mC]*dT*kG*kG*kG; antisense) [Compound 1200807] | 69

Same assay, conditions: Yap1 mRNA, percent of untreated control; modified oligonucleotides targeting SEQ ID NO: 1 and 2; Table 47

Row | Substance | YAP1 (% UT)
46 | 1197220 (antisense kT*kA*kA*dG*dG*dT*dT*dT*d[5mC]*d[5mC]*d[5mC]*dA*dG*kA*kT*kT) [Compound 1197220] | 32
47 | 1197210 (antisense kA*kT*kG*dT*dA*dA*dT*dA*dT*dT*dG*d[5mC]*dA*kA*kT*k[5mC]) [Compound 1197210] | 105
48 | 1009327 (kA*kT*kA*dT*dT*dA*dG*dA*dG*dT*dA*dT*dG*kT*kG*kG; antisense) [Compound 1009327] | 27

— patent US11214803B2, “Modulators of YAP1 expression” (Ionis Pharmaceuticals, Inc., priority 2019, dated 2022)
